Source: ChEMBL document CHEMBL5728228, “Inhibitors of cyclin-dependent kinases” (2021)

Assay: Protein kinase assay (Condition B: Thiol-free Conditions): The IC50 profile of compounds was determined using one protein kinase in a customized, thiol free assay. […] Prior to testing, the 1×10−03 M stock solutions in column 2 of the master plates were subjected to a serial, semi-logarithmic dilution using 100% DMSO as a solvent. […] Column 1 and 7 were filled with 100% DMSO as controls. Subsequently, 2×10 microliter from each well of the serial diluted copy plates were aliquoted with a 96 channel pipettor into two identical sets of “compound dilution plates”. All plates were barcoded for automated identification and tracking purposes. […] All compounds were stored as powder until being solubilized in DMSO. Solubilized compounds were stored as 1×10−02 M/100% DMSO stock solutions. Prior to the assay process, 90 microliters of H2O were added to each well of a set of compound dilution plates. To minimize potential precipitation, the H2O was added to each plate only a few minutes before the transfer of the compound solutions into the assay plates. Each plate was shaken thoroughly, resulting in compound dilution plates with a final of 10% DMSO. For each assay, 5 microliters of solution from each well of the compound dilution plates/10% DMSO were transferred into the assay plate. The final volume of the assay was 50 μl. All compounds were tested at 10 final assay concentrations in the range from 1×10−05 M to 3×10−10 M, in singlicate. The final DMSO concentration in the reaction cocktails was 1% in all cases. A radiometric protein kinase assay (33PanQinase® Activity Assay) was used for measuring the kinase activity of the protein kinase. All kinase assays were performed in 96-well FlashPlates™ from PerkinElmer (Boston, Mass., USA) in a 50 microliter reaction volume. The reaction cocktail was pipetted in four steps in the following order: 20 microliter of assay buffer (standard buffer)·5 microliter of ATP solution (in H2O)·5 microliter of test compound (in 10% DMSO)·20 microliter enzyme/substrate mix. […] For all experiments labeled as “Thiol-free”, all glutathione was exchanged from protein preparations so as to be removed from the assay and final buffer conditions contained no thiol-containing reagents. This was done so there would be no interference with the key cysteines in the proteins of interest.
C=CC(=O)Nc1ccc(C(=O)N2CC[C@@H](Nc3ncc(Cl)c(OC)n3)C2)cc1C showed an IC50 of under 100 nM.
C=CC(=O)N(C)c1ccc(C(=O)N2CC[C@@H](Nc3ncc(Cl)c(OC)n3)C2)cc1 showed an IC50 of under 100 nM.
Work on C=CC(=O)Nc1ccc(C(=O)N2CC[C@@H](Nc3cc(OC)c(Cl)cn3)C2)cc1 yielded an IC50 of under 100 nM.
In the case of C=CC(=O)Nc1ccc(C(=O)N2CC[C@@H](Nc3ncc(Br)c(OC)n3)C2)cc1, the IC50 is reported as under 100 nM.
C=CC(=O)Nc1ccc(C(=O)N2CC[C@@H](Nc3ncc(Cl)c(OC)n3)C2)cc1 showed an IC50 of under 100 nM.
Molecule CCC(=O)Nc1ccc(C(=O)N2CC[C@@H](Nc3ncc(Br)c(OC)n3)C2)cc1 has an IC50 of under 100 nM.
Molecule C=CC(=O)Nc1ccc(C(=O)N2CC[C@@H](Nc3ncc(Br)cn3)C2)cc1 has an IC50 of under 100 nM.
